Assay results published in ChEMBL document CHEMBL1201862, “PubChem BioAssay data set” (2004).
Calls of active or inactive are those of the source.

What was measured:
Cytochrome P450 2C19 = Cytochrome P450 2C19 (Homo sapiens, UniProt P33261); experiment: Cytochrome panel assay with activity outcomes. Panel member name: p450-cyp2c19 Compounds with AC50 equal or less than 10 uM are considered active; format: functional
Cytochrome P450 1A2 = target: T1, Cytochrome P450 1A2 (Homo sapiens, UniProt P05177);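 also: PubChem cytochrome P450 panel assay, CYP1A2 panel member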
T1 sequence (P05177 whole entry): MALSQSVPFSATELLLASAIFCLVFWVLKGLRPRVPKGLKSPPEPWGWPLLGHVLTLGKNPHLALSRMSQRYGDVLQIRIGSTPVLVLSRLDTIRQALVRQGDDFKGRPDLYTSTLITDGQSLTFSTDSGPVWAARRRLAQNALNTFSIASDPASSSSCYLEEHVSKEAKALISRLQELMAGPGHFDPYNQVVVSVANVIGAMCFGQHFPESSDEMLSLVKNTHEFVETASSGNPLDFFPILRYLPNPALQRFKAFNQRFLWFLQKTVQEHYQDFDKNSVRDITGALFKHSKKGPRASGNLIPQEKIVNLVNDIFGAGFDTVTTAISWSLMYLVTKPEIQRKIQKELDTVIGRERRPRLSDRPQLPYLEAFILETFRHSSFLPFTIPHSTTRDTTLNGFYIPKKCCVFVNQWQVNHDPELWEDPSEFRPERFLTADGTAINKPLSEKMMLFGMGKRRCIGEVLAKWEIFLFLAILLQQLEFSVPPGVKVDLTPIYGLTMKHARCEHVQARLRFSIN

[1] = cytotoxicity toward NIH3T3 fibroblasts, dose response, counter-screen, cell-based, ATP luminescence, mouse fibroblasts (AID 2010); format: functional;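 also: cells exposed to compound for about 90 hours before reading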
[2] = inhibitors of intracellular T. cruzi replication, confirmation, NIH3T3 host cells, beta-gal luminescence (AID 2044); format: functional, cell-based;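 also: intracellular parasites grown in NIH/3T3 mouse fibroblasts as host cells; luminescent beta-galactosidase reporter signal from transgenic T. cruzi replicating inside host cells; inhibitors lower the luminescence signal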
Streptococcus = experiment: Group A Streptococcus viability loss, dose response, counter-screen for streptokinase expression inhibitor project, luminescence, BacTiterGlo (AID 1915); format: functional, organism-based;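 also: potency for reduction of bacterial viability or growth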
[3] = test system: Streptococcus sp. 'group A'; experiment: growth inhibition of control SK(-) GAS strain, dose response, counter-screen for streptokinase expression inhibitor project, luminescence, kanamycin, BacTiterGlo, confirmation (AID 1900); format: functional, organism-based
Streptokinase A = target: T2, Streptokinase A (Streptococcus pyogenes serotype M1, UniProt P10520); experiment: S. pyogenes streptokinase expression inhibitors, potency, dose response, plasminogen activation absorbance, OD405 (AID 1914); format: functional, Streptococcus pyogenes M1 GAS;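 also: secreted streptokinase activity via plasminogen activation per viability signal from cell pellet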
T2 sequence (P10520 whole entry): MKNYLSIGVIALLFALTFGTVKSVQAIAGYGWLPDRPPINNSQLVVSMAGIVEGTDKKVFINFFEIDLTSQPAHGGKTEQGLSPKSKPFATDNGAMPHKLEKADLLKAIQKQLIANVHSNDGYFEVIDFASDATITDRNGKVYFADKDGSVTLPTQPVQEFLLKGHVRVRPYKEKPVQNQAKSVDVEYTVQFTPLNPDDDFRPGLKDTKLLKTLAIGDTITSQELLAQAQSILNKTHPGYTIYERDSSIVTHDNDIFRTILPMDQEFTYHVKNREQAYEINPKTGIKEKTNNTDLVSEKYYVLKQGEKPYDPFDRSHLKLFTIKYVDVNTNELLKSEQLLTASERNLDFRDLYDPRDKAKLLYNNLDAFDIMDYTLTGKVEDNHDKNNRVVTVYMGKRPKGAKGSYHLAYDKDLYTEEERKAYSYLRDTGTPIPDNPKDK

Cytochrome P450 2C9 = Cytochrome P450 2C9 (Homo sapiens, UniProt P11712)
Chain of Cytochrome P450 2C9 (P11712 whole entry): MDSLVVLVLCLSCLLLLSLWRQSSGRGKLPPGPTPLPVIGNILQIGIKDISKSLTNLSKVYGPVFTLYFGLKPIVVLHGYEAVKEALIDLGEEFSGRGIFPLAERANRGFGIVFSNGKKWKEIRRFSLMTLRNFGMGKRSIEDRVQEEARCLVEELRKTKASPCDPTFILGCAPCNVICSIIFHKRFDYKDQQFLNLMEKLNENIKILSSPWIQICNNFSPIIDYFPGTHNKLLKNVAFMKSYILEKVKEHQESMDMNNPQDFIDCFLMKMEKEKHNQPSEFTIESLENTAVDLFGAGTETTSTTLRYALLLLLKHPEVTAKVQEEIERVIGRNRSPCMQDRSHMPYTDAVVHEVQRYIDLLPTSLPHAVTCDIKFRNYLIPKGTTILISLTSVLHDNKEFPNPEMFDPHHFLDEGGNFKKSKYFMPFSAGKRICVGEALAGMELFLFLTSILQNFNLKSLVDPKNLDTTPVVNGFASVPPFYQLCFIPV

Chain of Cytochrome P450 2C19 (P33261 whole entry): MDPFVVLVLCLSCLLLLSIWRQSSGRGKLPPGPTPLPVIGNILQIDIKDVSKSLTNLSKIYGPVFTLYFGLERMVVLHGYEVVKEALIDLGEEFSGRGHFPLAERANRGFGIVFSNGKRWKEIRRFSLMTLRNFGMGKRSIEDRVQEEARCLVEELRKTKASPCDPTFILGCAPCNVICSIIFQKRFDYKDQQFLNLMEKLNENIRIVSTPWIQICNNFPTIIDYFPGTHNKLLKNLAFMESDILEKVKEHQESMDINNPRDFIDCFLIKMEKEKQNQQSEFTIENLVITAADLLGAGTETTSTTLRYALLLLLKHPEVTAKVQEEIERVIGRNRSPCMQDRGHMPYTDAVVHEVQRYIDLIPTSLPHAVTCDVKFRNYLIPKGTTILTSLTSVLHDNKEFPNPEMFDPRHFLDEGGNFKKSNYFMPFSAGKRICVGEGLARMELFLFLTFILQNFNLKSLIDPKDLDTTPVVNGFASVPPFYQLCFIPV

O=C(O)CSCNC(=O)CC12CC3CC(CC(C3)C1)C2
AC50 (Cytochrome P450 2C19; read-out: AC50): 28.2 µM (inconclusive)

C[N+](C)(CCCCCC[N+](C)(C)CCCN1C(=O)c2ccccc2C1=O)CCCN1C(=O)c2ccccc2C1=O
AC50 (Cytochrome P450 2C19; read-out: AC50): 31.6 µM (inconclusive)
AC50 (Cytochrome P450 1A2): 31.6 µM (inconclusive)

CC1=CC(C)(C)Nc2ccc(CSc3ccccc3)cc21
AC50 (Cytochrome P450 1A2): 0.501 µM (inconclusive)

COc1ccccc1Nc1nc(N)nc(CSC(=S)N2CCN(c3ccccc3)CC2)n1
EC50 [1]: > 60 µM (not active)
EC50 [2]: 2.57 µM (active)

FC(F)(F)c1cccc(NC(S)=NN=C(S)Nc2cccc(C(F)(F)F)c2)c1
EC50 (Streptococcus): 4.04 µM (active)
EC50 [3]: 1.65 µM (active)

Cc1[nH]c2ccc(F)cc2c1CCN(Cc1cccnc1)C(S)=NC(C)(C)C
EC50 [1]: > 60 µM (not active)
EC50 [2]: 0.577 µM (active)

Cc1ccccc1OCCn1cnc2cc([N+](=O)[O-])ccc2c1=O
EC50 [1]: > 30 µM (not active)
EC50 [2]: 0.615 µM (active)

O=C(NNc1ccccc1Cl)C(O)(c1cccc(C(F)(F)F)c1)c1cccc(C(F)(F)F)c1
EC50 (Streptokinase A): 3.16 µM (active)
EC50 (Streptococcus): 17.4 µM (active)
EC50 [3]: 2.65 µM (active)

CCOC(=O)c1c(NC(=O)COC(=O)c2ccc(C)s2)sc2c1CC(C)(C)NC2(C)C
EC50 (Streptokinase A): > 150 µM (not active)
EC50 (Streptococcus): 26.8 µM (active)
EC50 [3]: 2.43 µM (active)

Cc1cccc(NC(=O)c2sc(Cl)nc2-c2ccccc2)c1
EC50 (Streptokinase A): > 150 µM (not active)
EC50 (Streptococcus): 19.3 µM (active)
EC50 [3]: 5 µM (active)

CCCN(CCO)Cc1ccc(F)c(Br)c1
AC50 (Cytochrome P450 2C9): 0.126 µM (inconclusive)
AC50 (Cytochrome P450 1A2): 15.8 µM (inconclusive)

CC1CCN(CCCCOc2ccccc2[N+](=O)[O-])CC1
AC50 (Cytochrome P450 2C19; read-out: AC50): 15.8 µM (inconclusive)

COc1ccc(-c2nc3cnc(Nc4ccccc4)nc3n(CCC#N)c2=O)cc1
AC50 (Cytochrome P450 1A2): 0.501 µM (inconclusive)

Cc1cc(N)n(-c2ccccc2)n1
AC50 (Cytochrome P450 2C19; read-out: AC50): 2.24 µM (inconclusive)
AC50 (Cytochrome P450 1A2): 31.6 µM (inconclusive)

Clc1ccc2c(c1)C=Nc1c(NCc3ccccc3)ncnc1O2
AC50 (Cytochrome P450 1A2): 0.631 µM (inconclusive)

Cc1cc(N)n2ncc(-c3ccc(Cl)cc3)c2n1
AC50 (Cytochrome P450 2C9): 31.6 µM (inconclusive)

O=C(Oc1cccc(Br)c1)c1cccnc1
AC50 (Cytochrome P450 2C9): 39.8 µM (inconclusive)
AC50 (Cytochrome P450 2C19; read-out: AC50): 39.8 µM (inconclusive)

Cc1cc(C)c(-c2csc(NC(=O)c3cc([N+](=O)[O-])ccc3N3CCOCC3)n2)c(C)c1
EC50 [1]: > 30 µM (not active)
EC50 [2]: 1.44 µM (active)

O=C(NCC(c1cccs1)N1CCOCC1)c1ccco1 (configuration not stated)
AC50 (Cytochrome P450 2C9): 22.4 µM (inconclusive)

COc1cccc(Cn2c(=O)c(C)nc3cnc(Oc4cccc(Cl)c4)nc32)c1
AC50 (Cytochrome P450 1A2): 25.1 µM (inconclusive)

Cc1nc2sccn2c(=O)c1Cl
AC50 (Cytochrome P450 1A2): 15.8 µM (inconclusive)

O=C(O)c1ccc(N/N=C/c2ccc(-c3ccc(Br)cc3)o2)cc1
EC50 (Streptococcus): 3.02 µM (active)
EC50 [3]: 4.26 µM (active)

COc1cc(-c2nnc(SCC3(c4ccc(Br)cc4)OCCO3)o2)cc(OC)c1OC
AC50 (Cytochrome P450 2C9): 39.8 µM (inconclusive)

Cc1cc(C)n2nc(C(=O)NCc3cccc(C(F)(F)F)c3)nc2n1
EC50 [1]: > 60 µM (inconclusive)
EC50 [2]: > 60 µM (not active)

COc1ccc(CNc2ccnc(-c3ccc(C(=O)N(C)C)cc3)n2)c(OC)c1
AC50 (Cytochrome P450 2C19; read-out: AC50): 20 µM (inconclusive)
AC50 (Cytochrome P450 1A2): 12.6 µM (inconclusive)

CC(C)(CN1CCN(C(c2ccccc2)c2ccccc2)CC1)NS(=O)(=O)c1ccccc1
EC50 [1]: > 60 µM (not active)
EC50 [2]: 1.7 µM (active)

CC1C(=O)C(C)C(c2ccc([N+](=O)[O-])cc2)NC1c1ccc([N+](=O)[O-])cc1 (configuration not stated)
EC50 [1]: > 30 µM (not active)
EC50 [2]: 0.632 µM (active)

CCc1ccc(Nc2n[n+](-c3ccccc3)c(-c3ccc(OCc4ccccc4)cc3)s2)cc1
EC50 [1]: > 30 µM (not active)
EC50 [2]: 2.01 µM (active)

CC(=O)NC1(c2cccc(F)c2)CCN(CC(=O)NC(C)C)CC1
AC50 (Cytochrome P450 2C19; read-out: AC50): 39.8 µM (inconclusive)

COc1ccc(N/C=C2/Sc3ccccc3NC2=O)cc1
EC50 [1]: > 30 µM (not active)
EC50 [2]: 1.22 µM (active)

COc1cc(OC)cc(C(=O)NC(=S)N2CCN(c3ccc(C(F)(F)F)cc3[N+](=O)[O-])CC2)c1
EC50 (Streptokinase A): > 150 µM (not active)
EC50 (Streptococcus): > 150 µM (not active)
EC50 [3]: 1.61 µM (active)

COC(=O)[C@@]1(Cc2ccc(F)cc2)[C@H]2c3cc(C(=O)N4CCCC4)n(Cc4ccc(Cl)c(C(F)(F)F)c4)c3C[C@H]2CN1C(=O)c1ccccc1
AC50 (Cytochrome P450 2C19; read-out: AC50): 31.6 µM (inconclusive)

O=C(NCC1CCN(Cc2ccccc2Cl)CC1)Nc1cccc(Cl)c1
EC50 (Streptokinase A): 49.3 µM (active)
EC50 (Streptococcus): > 150 µM (not active)
EC50 [3]: > 150 µM (not active)

CCn1ccnc1CN(C)Cc1cn(-c2ccc(C)cc2)nc1-c1cccc(C)c1
EC50 [1]: > 60 µM (not active)
EC50 [2]: 1.92 µM (active)

COC(=O)c1[nH]c2cc(OC)ccc2c1NC(=O)CCN1CCSCC1
AC50 (Cytochrome P450 2C9): 22.4 µM (inconclusive)

Cn1cccc1C(=O)N1CCC[C@@]2(CCN(C(c3ccccc3)c3ccccc3)C2)C1
AC50 (Cytochrome P450 2C9): 39.8 µM (inconclusive)
AC50 (Cytochrome P450 2C19; read-out: AC50): 25.1 µM (inconclusive)

CCC(=O)OCN1C(=O)C=CC1=O
AC50 (Cytochrome P450 2C19; read-out: AC50): 0.002 µM (inconclusive)

COCCNc1nc(-c2cccc(OC)c2)nc2ccccc12
AC50 (Cytochrome P450 2C19; read-out: AC50): 31.6 µM (inconclusive)

CC(C)CNc1nc(N)nc(O)c1NC=O
AC50 (Cytochrome P450 2C19): inconclusive

CC(CC(=O)O)(CC(=O)O)c1ccccc1
AC50 (Cytochrome P450 2C19): inconclusive

CCC1CCCCN1c1cc(C)nc2cc(-c3cccc(C)c3)nn12 (configuration not stated)
EC50 (Streptokinase A): 15.3 µM (active)
EC50 (Streptococcus): 13.7 µM (active)
EC50 [3]: 6.17 µM (active)

O=C(NNC(=S)NC(=O)c1cccnc1)c1ccc(Cl)cc1
EC50 (Streptococcus): 11.4 µM (active)
EC50 [3]: 5.07 µM (active)

Cc1cc2c(=O)n(Cc3ccco3)c(SCC(=O)N3CCCc4ccccc43)nc2s1
EC50 (Streptokinase A): 31.8 µM (active)
EC50 (Streptococcus): > 150 µM (not active)
EC50 [3]: 20.4 µM (active)

CC(C)N1CCN(Cc2ccc3c(c2)Cc2ccccc2-3)CC1CCO (configuration not stated)
EC50 [1]: 7.87 µM (active)
EC50 [2]: 0.532 µM (active)

CSc1ccccc1NC(=S)N/N=C/c1cccn1Cc1cccc(C)c1
EC50 [1]: > 60 µM (not active)
EC50 [2]: 2.35 µM (active)

O=C(NCCc1c[nH]c2ccccc12)[C@@H]1C[C@H]1[C@@H](NP(=O)(c1ccccc1)c1ccccc1)c1ccccc1
AC50 (Cytochrome P450 1A2): 15.8 µM (inconclusive)

COc1cc2c(cc1OC)CN(C(=O)COc1ccc(C)c(C)c1)CC2
EC50 [1]: > 60 µM (not active)
EC50 [2]: 2.93 µM (active)

COCCn1c(C)cc(C2=NN=C(Nc3ccc(F)cc3)SC2)c1C
AC50 (Cytochrome P450 1A2): 11.2 µM (inconclusive)

CC(=O)Nc1ccc(NC(=O)CSc2nnc(-c3ccccc3)n2Cc2ccc3c(c2)OCO3)cc1
AC50 (Cytochrome P450 1A2): 31.6 µM (inconclusive)

CCn1cc(C(=O)OCC(=O)c2cc(C)n(-c3cccc(C(F)(F)F)c3)c2C)c(=O)c2ccc(C)nc21
EC50 (Streptokinase A): 21.6 µM (active)
EC50 (Streptococcus): > 50 µM (not active)
EC50 [3]: 5.68 µM (active)

NC[C@@H](O)CSCc1ccc(Cl)cc1
AC50 (Cytochrome P450 2C19; read-out: AC50): 0.1 µM (inconclusive)

CCOC(=O)C1CCCN(C(=O)c2cc3nc(-c4ccc5c(c4)OCO5)cc(C(F)(F)F)n3n2)C1 (configuration not stated)
AC50 (Cytochrome P450 1A2): 25.1 µM (inconclusive)

Cc1c(C(=O)OC(C)CCN(C)C)oc2ccccc12 (configuration not stated)
EC50 [1]: > 30 µM (not active)
EC50 [2]: 0.574 µM (active)

Cc1cc(Cl)ccc1OCC(=O)N/N=C1\CCCc2ccccc21
AC50 (Cytochrome P450 2C9): 3.55 µM (inconclusive)
AC50 (Cytochrome P450 1A2): 2.51 µM (inconclusive)

Oc1ccc(Br)cc1/C=N/Nc1ncc(-c2ccccc2)cn1
EC50 (Streptococcus): 2.68 µM (active)
EC50 [3]: 1.51 µM (active)

C=C1CCC2C(C)(C)[C@@H](O)CC[C@@]2(C)[C@@H]1COc1ccc2ccc(=O)oc2c1 (some centres not stated)
EC50 (Streptokinase A): 6.72 µM (active)
EC50 (Streptococcus): > 150 µM (not active)
EC50 [3]: 9.27 µM (active)

Cc1cc(Br)ccc1OCCN1CCCC1
EC50 [1]: 58.7 µM (active)
EC50 [2]: 0.651 µM (active)

CNCCCCCCCCSc1nc(C(C)C)ccc1C(=O)c1cccs1
AC50 (Cytochrome P450 2C9): 25.1 µM (inconclusive)
